Reference: US20230081426A1, “COMPOUNDS AND METHODS FOR KRAS MODULATION AND INDICATIONS THEREFOR” (Plexxikon Inc., priority 2020, published 2023)
Read-outs that look alike come from different tables or passages of the source.

Legend:
[1] = molecular target: T1, G12D-mutant human KRAS (amino acid residues 1-188) (Homo sapiens, UniProt P01116, G12D); experiment: KRAS Binding Disruption Assay (AlphaScreen; biotinylated KRpep-2d analogue or RAF1-RBD), G12D; settings: for IC50: geometric mean, read-out: KRAS GMean IC50 (uM) MUTATION: G12D
T1 construct: G12D or G12C-mutant human KRAS (amino acid residues 1-188) with FLAG tag; made in house; host or cells: E. coli
Method in brief: (§1)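 AlphaScreen readout: signal falls as compound displaces biotinylated KRpep-2d analogue or RAF1-RBD from mutant KRAS. Both partners at 5-20 nM, 1 h binding at 25° C, then 10 μg/mL Anti-Flag acceptor and streptavidin donor beads for 1 h. IC50 by nonlinear regression of % inhibition.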

[2] = molecular target: T2, G12V-mutant human KRAS (amino acid residues 1-188) (Homo sapiens, UniProt P01116, G12V); experiment: KRAS Binding Competition Assay (AlphaScreen; biotinylated KRpep-2d analogue), G12V; settings: geometric mean, read-out: KRAS GMean IC50 (uM) MUTATION: G12V
T2 construct: G12V-mutant human KRAS (amino acid residues 1-188) with FLAG tag was purified from E. coli; made in house; host or cells: E. coli

[3] = molecular target: T3, G12C-mutant human KRAS (amino acid residues 1-188) (Homo sapiens, UniProt P01116, G12C); experiment: KRAS Binding Disruption Assay (AlphaScreen; biotinylated KRpep-2d analogue or RAF1-RBD), G12C; settings: geometric mean, read-out: KRAS GMean IC50 (uM) MUTATION: G12C
T3 construct: G12D or G12C-mutant human KRAS (amino acid residues 1-188) with FLAG tag; made in house; host or cells: E. coli
Method in brief: as §1

With `CN1CCC[C@H]1COc1nc(N2CC3CC2CN3)c2cc(Cl)c(-c3cc(O)cc4ccccc34)c(F)c2n1` (stereo partly drawn) [P-0038, 4-(4-(2,5-diazabicyclo[2.2.1]heptan-2-yl)-6-chloro-8-fluoro-2-(((S)-1-methylpyrrolidin-2-yl)methoxy)quinazolin-7-yl)naphthalen-2-ol] the IC50 ([1]; KRAS G12D) was 0.0001 to 10 µM, the IC50 [2] was 10 to 100 µM and the IC50 [3] was 10 to 100 µM.
With `CC1(NC(=O)N2[C@@H]3CC[C@H]2CN(c2nc(OCC45CCCN4CCC5)nc4cc(-c5cc(O)cc6ccccc56)ccc24)C3)CCNC1` (stereo partly drawn) [P-0124, (1R,5S)-3-(7-(3-hydroxynaphthalen-1-yl)-2-((tetrahydro-1H-pyrrolizin-7a(5H)-yl)methoxy)quinazolin-4-yl)-N-(3-methylpyrrolidin-3-yl)-3,8-diazabicyclo[3.2.1]octane-8-carboxamide] the IC50 ([1]; KRAS G12D) was 0.0001 to 10 µM, the IC50 [2] was 0.0001 to 10 µM and the IC50 [3] was 0.0001 to 10 µM.
Work on `CO[C@@H]1C[C@@H](COc2nc(N3C[C@H]4CC[C@@H](C3)N4)c3ccc(-c4cc(O)cc5ccccc45)cc3n2)N(C)C1` [P-0060, 4-(4-((1R,5S)-3,8-diazabicyclo[3.2.1]octan-3-yl)-2-(((2S,4R)-4-methoxy-1-methylpyrrolidin-2-yl)methoxy)quinazolin-7-yl)naphthalen-2-ol] yielded an IC50 ([1]; KRAS G12D) of 0.0001 to 10 µM, an IC50 [2] of 0.0001 to 10 µM and an IC50 [3] of 0.0001 to 10 µM.
`CN1CCC[C@H]1COc1nc(N2C[C@H]3CC[C@@H](C2)N3)c2cc(Cl)c(-c3c(O)cccc3F)c(F)c2n1` [P-0027, 2-(4-((1R,5S)-3,8-diazabicyclo[3.2.1]octan-3-yl)-6-chloro-8-fluoro-2-(((S)-1-methylpyrrolidin-2-yl)methoxy)quinazolin-7-yl)-3-fluorophenol] was tested, and the IC50 ([1]; KRAS G12D) was 0.0001 to 10 µM, the “Improved KRAS G12D Biochemical Potency of Compounds with Bridged vs Non-Bridged R^1 Groups” value ([1]; Table 3, fold more potent than non-bridged version at the R1 variable) was “P-0027 is about 392 times more potent than its non- bridged version at the R^1 variable” and the IC50 ([1]; Table 3, bridged vs non-bridged R1) was 0.038 µM. It also gave an IC50 [2] of 10 to 100 µM and an IC50 [3] of 10 to 100 µM.
`CN1C(=O)SC(CC(=O)N2[C@@H]3CC[C@H]2CN(c2nc(OCC45CCCN4CCC5)nc4c(F)c(-c5cc(O)cc6ccccc56)ccc24)C3)C1=O` (stereo partly drawn) [P-0412, 5-(2-((1R,5S)-3-(8-fluoro-7-(3-hydroxynaphthalen-1-yl)-2-((tetrahydro-1H-pyrrolizin-7a(5H)-yl)methoxy)quinazolin-4-yl)-3,8-diazabicyclo[3.2.1]octan-8-yl)-2-oxoethyl)-3-methylthiazolidine-2,4-dione] was tested, and the IC50 ([1]; KRAS G12D) was 0.0001 to 10 µM, the IC50 [2] was 0.0001 to 10 µM and the IC50 [3] was 0.0001 to 10 µM.
With `Oc1cc(-c2c(F)cc3c(N4C[C@H]5CC[C@@H](C4)N5)nc(OCC45CCCN4CCC5)nc3c2F)c2c(Cl)cccc2c1` [P-0137, 4-(4-((1R,5S)-3,8-diazabicyclo[3.2.1]octan-3-yl)-6,8-difluoro-2-((tetrahydro-1H-pyrrolizin-7a(5H)-yl)methoxy)quinazolin-7-yl)-5-chloronaphthalen-2-ol] the IC50 ([1]; KRAS G12D) was 0.0001 to 10 µM, the IC50 [2] was 0.0001 to 10 µM and the IC50 [3] was 0.0001 to 10 µM.
For `Oc1cc(-c2c(Cl)cc3c(N4C[C@H]5CC[C@@H](C4)N5)nc(OCC45CCCN4CCC5)nc3c2F)c2ccccc2c1` [P-0034, 4-(4-((1R,5S)-3,8-diazabicyclo[3.2.1]octan-3-yl)-6-chloro-8-fluoro-2-((tetrahydro-1H-pyrrolizin-7a(5H)-yl)methoxy)quinazolin-7-yl)naphthalen-2-ol], the IC50 ([1]; KRAS G12D) was 0.0001 to 10 µM, the IC50 [2] was 0.0001 to 10 µM and the IC50 [3] was 0.0001 to 10 µM.
With `O=C(O)CCC(=O)N1[C@@H]2CC[C@H]1CN(c1nc(OCC34CCCN3CCC4)nc3cc(-c4cc(O)cc5ccccc45)ccc13)C2` [P-0064, 4-((1R,5S)-3-(7-(3-hydroxynaphthalen-1-yl)-2-((tetrahydro-1H-pyrrolizin-7a(5H)-yl)methoxy)quinazolin-4-yl)-3,8-diazabicyclo[3.2.1]octan-8-yl)-4-oxobutanoic acid] the IC50 ([1]; KRAS G12D) was 0.0001 to 10 µM, the IC50 [2] was 0.0001 to 10 µM and the IC50 [3] was 0.0001 to 10 µM.
Work on `Cn1cc(NC(=O)N2[C@@H]3CC[C@H]2CN(c2nc(OCC45CCCN4CCC5)nc4cc(-c5cc(O)cc6ccccc56)ccc24)C3)cn1` [P-0128, (1R,5S)-3-(7-(3-hydroxynaphthalen-1-yl)-2-((tetrahydro-1H-pyrrolizin-7a(5H)-yl)methoxy)quinazolin-4-yl)-N-(1-methyl-1H-pyrazol-4-yl)-3,8-diazabicyclo[3.2.1]octane-8-carboxamide] yielded an IC50 ([1]; KRAS G12D) of 0.0001 to 10 µM, an IC50 [2] of 0.0001 to 10 µM and an IC50 [3] of 0.0001 to 10 µM.
For `Cc1c(-c2cc(O)cc3ccccc23)ccc2c(N3C[C@H]4CC[C@@H](C3)N4)nc(OCC34CCCN3CCC4)nc12` [P-0015, 4-(4-((1R,5S)-3,8-diazabicyclo[3.2.1]octan-3-yl)-8-methyl-2-((tetrahydro-1H-pyrrolizin-7a(5H)-yl)methoxy)quinazolin-7-yl)naphthalen-2-ol], the IC50 ([1]; KRAS G12D) was 0.0001 to 10 µM, the IC50 [2] was 0.0001 to 10 µM and the IC50 [3] was 0.0001 to 10 µM.
`O=C(N[C@H]1CC[C@H](O)C1)N1[C@@H]2CC[C@H]1CN(c1nc(OCC34CCCN3CCC4)nc3cc(-c4cc(O)cc5ccccc45)ccc13)C2` [P-0131, (1R,5S)-N-((1S,3S)-3-hydroxycyclopentyl)-3-(7-(3-hydroxynaphthalen-1-yl)-2-((tetrahydro-1H-pyrrolizin-7a(5H)-yl)methoxy)quinazolin-4-yl)-3,8-diazabicyclo[3.2.1]octane-8-carboxamide] showed an IC50 ([1]; KRAS G12D) of 0.0001 to 10 µM, an IC50 [2] of 0.0001 to 10 µM and an IC50 [3] of 0.0001 to 10 µM.
Work on `Oc1cccc(F)c1-c1ccc2c(N3C[C@H]4CC[C@@H](C3)N4)nc(OCC34CCCN3CCC4)nc2c1F` [P-0049, 2-(4-((1R,5S)-3,8-diazabicyclo[3.2.1]octan-3-yl)-8-fluoro-2-((tetrahydro-1H-pyrrolizin-7a(5H)-yl)methoxy)quinazolin-7-yl)-3-fluorophenol] yielded an IC50 ([1]; KRAS G12D) of 0.0001 to 10 µM, an IC50 [2] of 100 to 1000 µM and an IC50 [3] of 10 to 100 µM.
For `O=C1NCCC1NC(=O)N1[C@@H]2CC[C@H]1CN(c1nc(OCC34CCCN3CCC4)nc3cc(-c4cc(O)cc5ccccc45)ccc13)C2` (stereo partly drawn) [P-0135, (1R,5S)-3-(7-(3-hydroxynaphthalen-1-yl)-2-((tetrahydro-1H-pyrrolizin-7a(5H)-yl)methoxy)quinazolin-4-yl)-N-(2-oxopyrrolidin-3-yl)-3,8-diazabicyclo[3.2.1]octane-8-carboxamide], the IC50 ([1]; KRAS G12D) was 0.0001 to 10 µM, the IC50 [2] was 0.0001 to 10 µM and the IC50 [3] was 0.0001 to 10 µM.
`CCC(=O)N1[C@@H]2CC[C@H]1CN(c1nc(OCC34CCCN3CCC4)nc3cc(-c4cc(O)cc5ccccc45)ccc13)C2` [P-0063, 1-((1R,5S)-3-(7-(3-hydroxynaphthalen-1-yl)-2-((tetrahydro-1H-pyrrolizin-7a(5H)-yl)methoxy)quinazolin-4-yl)-3,8-diazabicyclo[3.2.1]octan-8-yl)propan-1-one] was tested, and the IC50 ([1]; KRAS G12D) was 0.0001 to 10 µM, the IC50 [2] was 0.0001 to 10 µM and the IC50 [3] was 0.0001 to 10 µM.
With `CN1CCC[C@H]1COc1nc(N2CC3CCC2CN3C(=O)CC2SC(=O)NC2=O)c2ccc(-c3cc(O)cc4ccccc34)c(F)c2n1` (stereo partly drawn) [P-0328, 5-(2-(5-(8-fluoro-7-(3-hydroxynaphthalen-1-yl)-2-(((S)-1-methylpyrrolidin-2-yl)methoxy)quinazolin-4-yl)-2,5-diazabicyclo[2.2.2]octan-2-yl)-2-oxoethyl)thiazolidine-2,4-dione] the IC50 ([1]; KRAS G12D) was 0.0001 to 10 µM, the IC50 [2] was 0.0001 to 10 µM and the IC50 [3] was 0.0001 to 10 µM.
Work on `O=C(NCC1CCNC1)N1[C@@H]2CC[C@H]1CN(c1nc(OCC34CCCN3CCC4)nc3cc(-c4cc(O)cc5ccccc45)ccc13)C2` (stereo partly drawn) [P-0127, (1R,5S)-3-(7-(3-hydroxynaphthalen-1-yl)-2-((tetrahydro-1H-pyrrolizin-7a(5H)-yl)methoxy)quinazolin-4-yl)-N-(pyrrolidin-3-ylmethyl)-3,8-diazabicyclo[3.2.1]octane-8-carboxamide] yielded an IC50 ([1]; KRAS G12D) of 0.0001 to 10 µM, an IC50 [2] of 0.0001 to 10 µM and an IC50 [3] of 0.0001 to 10 µM.
With `O=C1NC(=O)C(CC(=O)N2[C@@H]3CC[C@H]2CN(c2nc(OCC45CCCN4CCC5)nc4c(F)c(-c5cc(O)cc6ccccc56)ccc24)C3)N1` (some centres unmarked) [P-0366] the IC50 ([1]; KRAS G12D) was 0.0001 to 10 µM, the IC50 [2] was 0.0001 to 10 µM and the IC50 [3] was 0.0001 to 10 µM.
`CN1CCC[C@H]1COc1nc(N2C[C@H]3CC[C@@H](C2)N3C(=O)CCn2cccn2)c2ccc(-c3cc(O)cc4ccccc34)cc2n1` [P-0120, 1-((1R,5S)-3-(7-(3-hydroxynaphthalen-1-yl)-2-(((S)-1-methylpyrrolidin-2-yl)methoxy)quinazolin-4-yl)-3,8-diazabicyclo[3.2.1]octan-8-yl)-3-(1H-pyrazol-1-yl)propan-1-one] was tested, and the IC50 ([1]; KRAS G12D) was 0.0001 to 10 µM, the IC50 [2] was 0.0001 to 10 µM and the IC50 [3] was 0.0001 to 10 µM.
With `CN1CCC[C@H]1COc1nc(N2C[C@H]3CC[C@@H](C2)N3)c2cc(C#N)c(-c3cc(O)cc4ccccc34)c(F)c2n1` [P-0021, 4-((1R,5S)-3,8-diazabicyclo[3.2.1]octan-3-yl)-8-fluoro-7-(3-hydroxynaphthalen-1-yl)-2-(((S)-1-methylpyrrolidin-2-yl)methoxy)quinazoline-6-carbonitrile] the IC50 ([1]; KRAS G12D) was 0.0001 to 10 µM, the IC50 [2] was 0.0001 to 10 µM and the IC50 [3] was 0.0001 to 10 µM.
Work on `O=C(N[C@H]1CC[C@@H](O)C1)N1[C@@H]2CC[C@H]1CN(c1nc(OCC34CCCN3CCC4)nc3cc(-c4cc(O)cc5ccccc45)ccc13)C2` [P-0130, (1R,5S)-N-((1S,3R)-3-hydroxycyclopentyl)-3-(7-(3-hydroxynaphthalen-1-yl)-2-((tetrahydro-1H-pyrrolizin-7a(5H)-yl)methoxy)quinazolin-4-yl)-3,8-diazabicyclo[3.2.1]octane-8-carboxamide] yielded an IC50 ([1]; KRAS G12D) of 0.0001 to 10 µM, an IC50 [2] of 0.0001 to 10 µM and an IC50 [3] of 0.0001 to 10 µM.
